Measurements reported in PMC9228641 (Journal of medicinal chemistry, 2021).
Read-outs that look alike come from different tables or passages of the source.

How the values were obtained:
[1] = system: HCV GT-3a replicon, S52/SG-Feo SHI; conditions: relative to 12
GT-3a NS3/4A protease = assay: Enzyme inhibition assay; format: biochemical, Hepatitis C virus; conditions: relative to 12
[2] = system: HCV replicon D168A variant
[3] = system: WT HCV Con1 (GT-1b) reporter replicon containing the H77 (GT-1a) NS3 protease region; assay: Antiviral replicon assay, WT HCV; format: cell-based, Hepatitis C virus; conditions: for fold improvement in antiviral activity against WT HCV: more active, relative to 36
[4] = system: HCV replicon D168A variant; assay: microbe, parasite or virus in culture; conditions: Hepatitis C virus, Huh-7, 96 h, read-out: EC50 against D168A variant
HCV replicons = assay: Replicon assays, variant not given; format: cell-based, Hepatitis C virus; conditions: more potent than 38
[5] = less active, compared to the (S)-stereoisomer 30

COc1ccc2nc(C)c(O[C@@H]3C[C@H]4C(=O)N[C@]5(C(=O)NS(=O)(=O)C6(C)CC6)C[C@H]5C=CCCCCC[C@H](NC(=O)OCC5(C(F)(F)F)CC5)C(=O)N4C3)nc2c1 (stereo in doubt) [Compound 15, (1-(Trifluoromethyl)cyclopropyl)methyl ((2R,6S,13aS,14aR,16aS,Z)-2-((7-methoxy-3-methylquinoxalin-2-yl)oxy)-14a-(((1-methylcyclopropyl)sulfonyl)carbamoyl)-5,16-dioxo-1,2,3,5,6,7,8,9,10,11,13a,14,14a,15,16,16a-hexadecahydrocyclopropa[e]pyrrolo[1,2-a][1,4]diazacyclopentadecin-6-yl)carbamate] was tested, and the “fold lower activity against GT-3a, replicon assay” value [1] was 2 fold and the “fold lower activity against GT-3a, enzyme assay” value (GT-3a NS3/4A protease) was 2 fold.

In the case of COc1ccc2nc(O[C@@H]3C[C@H]4C(=O)N[C@]5(C(=O)NS(=O)(=O)C6(C)CC6)C[C@H]5C=CCCCCC[C@H](NC(=O)OCC5(C(F)(F)F)CC5)C(=O)N4C3)c(C(F)(F)F)nc2c1 (stereo in doubt) [Compound 40, (1-(Trifluoromethyl)cyclopropyl)methyl ((2R,6S,13aS,14aR,16aS,Z)-2-((6-methoxy-3-(trifluoromethyl)quinoxalin-2-yl)oxy)-14a-(((1-methylcyclopropyl)sulfonyl)carbamoyl)-5,16-dioxo-1,2,3,5,6,7,8,9,10,11,13a,14,14a,15,16,16a-hexadecahydrocyclopropa[e]pyrrolo[1,2-a][1,4]diazacyclopentadecin-6-yl)carbamate], the “fold more active against the D168A variant” value ([2]; more active, relative to 36) is reported as 2 fold and the “fold improvement in antiviral activity against WT HCV” value [3] is reported as 2 fold.

With CCC(C)(C)OC(=O)N[C@H]1CCCCCC=C[C@@H]2C[C@@]2(C(=O)NS(=O)(=O)C2(C)CC2)NC(=O)[C@@H]2C[C@@H](Oc3nc4ccc(OC)cc4nc3C(F)(F)F)CN2C1=O (stereo in doubt) [Compound 28, tert-Pentyl ((2R,6S,13aS,14aR,16aS,Z)-2-((6-methoxy-3-(trifluoromethyl)quinoxalin-2-yl)oxy)-14a-(((1-methylcyclopropyl)sulfonyl)carbamoyl)-5,16-dioxo-1,2,3,5,6,7,8,9,10,11,13a,14,14a,15,16,16a-hexadecahydrocyclopropa[e]pyrrolo[1,2-a][1,4]diazacyclopentadecin-6-yl)carbamate] the “fold lower antiviral activity against the D168A variant” value ([2]; lower, relative to 3) was 2 fold.

With COc1ccc2nc(C)c(O[C@@H]3C[C@H]4C(=O)N[C@]5(C(=O)NS(=O)(=O)C6(C)CC6)C[C@H]5C=CCCCCC[C@H](NC(=O)O[C@H](C)C(F)(F)F)C(=O)N4C3)nc2c1 (stereo in doubt) [Compound 14, (R)-1,1,1-Trifluoropropan-2-yl ((2R,6S,13aS,14aR,16aS,Z)-2-((7-methoxy-3-methylquinoxalin-2-yl)oxy)-14a-(((1-methylcyclopropyl)sulfonyl)carbamoyl)-5,16-dioxo-1,2,3,5,6,7,8,9,10,11,13a,14,14a,15,16,16a-hexadecahydrocyclopropa[e]pyrrolo[1,2-a][1,4]diazacyclopentadecin-6-yl)carbamate] the “fold better potency against the D168A variant” value ([2]; relative to 13) was 2 fold.

In the case of COc1ccc2nc(C)c(O[C@@H]3C[C@H]4C(=O)N[C@]5(C(=O)NS(=O)(=O)C6(C)CC6)C[C@H]5C=CCCCCC[C@H](NC(=O)OC5(C(F)(F)F)CCCC5)C(=O)N4C3)nc2c1 (stereo in doubt) [Compound 24, 1-(Trifluoromethyl)cyclopentyl ((2R,6S,13aS,14aR,16aS,Z)-2-((7-methoxy-3-methylquinoxalin-2-yl)oxy)-14a-(((1-methylcyclopropyl)sulfonyl)carbamoyl)-5,16-dioxo-1,2,3,5,6,7,8,9,10,11,13a,14,14a,15,16,16a-hexadecahydrocyclopropa[e]pyrrolo[1,2-a][1,4]diazacyclopentadecin-6-yl)carbamate], the “fold improvement in potency against the D168A variant, replicon assay” value ([2]; improvement, relative to the parent 18) is reported as 2 fold.

For COc1ccc2nc(C)c(O[C@@H]3C[C@H]4C(=O)N[C@]5(C(=O)NS(=O)(=O)C6(C)CC6)C[C@H]5/C=C/CCCCC[C@H](NC(=O)OC5CCC5)C(=O)N4C3)nc2c1 [Compound 21], the EC50 [4] was less than 5 nM.

With COc1ccc2nc(O[C@@H]3C[C@H]4C(=O)N[C@]5(C(=O)NS(=O)(=O)C6(C)CC6)C[C@H]5C=CCCCCC[C@H](NC(=O)O[C@H](C)C(F)(F)F)C(=O)N4C3)c(C(F)(F)F)nc2c1 (stereo in doubt) [Compound 39, (R)-1,1,1-Trifluoropropan-2-yl ((2R,6S,13aS,14aR,16aS,Z)-2-((6-methoxy-3-(trifluoromethyl)quinoxalin-2-yl)oxy)-14a-(((1-methylcyclopropyl)sulfonyl)carbamoyl)-5,16-dioxo-1,2,3,5,6,7,8,9,10,11,13a,14,14a,15,16,16a-hexadecahydrocyclopropa[e]pyrrolo[1,2-a][1,4]diazacyclopentadecin-6-yl)carbamate] the “fold more potent in replicon assays” value (HCV replicons) was “at least 2 fold”.

With COc1ccc2nc(C)c(O[C@@H]3C[C@H]4C(=O)N[C@]5(C(=O)NS(=O)(=O)C6(C)CC6)C[C@H]5/C=C/CCCCC[C@H](NC(=O)OC5C[C@@H]6C[C@@H]6C5)C(=O)N4C3)nc2c1 (some centres unmarked) [Compound 20] the EC50 [4] was 0.5 nM.

In the case of COc1ccc2nc(O[C@@H]3C[C@H]4C(=O)N[C@]5(C(=O)NS(=O)(=O)C6(C)CC6)C[C@H]5C=CCCCCC[C@H](NC(=O)O[C@H](C)C(C)C)C(=O)N4C3)c(C(F)(F)F)nc2c1 (stereo in doubt) [Compound 31, (R)-3-Methylbutan-2-yl ((2R,6S,13aS,14aR,16aS,Z)-2-((6-methoxy-3-(trifluoromethyl)quinoxalin-2-yl)oxy)-14a-(((1-methylcyclopropyl)sulfonyl)carbamoyl)-5,16-dioxo-1,2,3,5,6,7,8,9,10,11,13a,14,14a,15,16,16a-hexadecahydrocyclopropa[e]pyrrolo[1,2-a][1,4]diazacyclopentadecin-6-yl)carbamate], the “fold less active against D168A replicon” value [2, 5] is reported as 2 fold and the “fold less active against WT replicon” value [3, 5] is reported as 2 fold.

For COc1ccc2nc(C)c(O[C@@H]3C[C@H]4C(=O)N[C@]5(C(=O)NS(=O)(=O)C6(C)CC6)C[C@H]5C=CCCCCC[C@H](NC(=O)OC(C)(C)C(F)(F)F)C(=O)N4C3)nc2c1 (stereo in doubt) [Compound 12, 1,1,1-Trifluoro-2-methylpropan-2-yl ((2R,6S,13aS,14aR,16aS,Z)-2-((7-methoxy-3-methylquinoxalin-2-yl)oxy)-14a-(((1-methylcyclopropyl)sulfonyl)carbamoyl)-5,16-dioxo-1,2,3,5,6,7,8,9,10,11,13a,14,14a,15,16,16a-hexadecahydrocyclopropa[e]pyrrolo[1,2-a][1,4]diazacyclopentadecin-6-yl)carbamate], the EC50 [4] was less than 5 nM and the EC50 ([3]; Hepatitis C virus, GT1A|GT1B, Huh-7, 96 h, read-out: EC50 against WT HCV) was less than 5 nM.

COc1ccc2nc(O[C@@H]3C[C@H]4C(=O)N[C@]5(C(=O)NS(=O)(=O)C6(C)CC6)C[C@H]5C=CCCCCC[C@H](NC(=O)OCC5(C)CC5(F)F)C(=O)N4C3)c(C(F)(F)F)nc2c1 (stereo in doubt) [Compound 41, (2,2-Difluoro-1-methylcyclopropyl)methyl ((2R,6S,13aS,14aR,16aS,Z)-2-((6-methoxy-3-(trifluoromethyl)quinoxalin-2-yl)oxy)-14a-(((1-methylcyclopropyl)sulfonyl)carbamoyl)-5,16-dioxo-1,2,3,5,6,7,8,9,10,11,13a,14,14a,15,16,16a-hexadecahydrocyclopropa[e]pyrrolo[1,2-a][1,4]diazacyclopentadecin-6-yl)carbamate] was tested, and the “fold improvement in antiviral activity against WT HCV” value [3] was 2 fold.

With COc1ccc2nc(O[C@@H]3C[C@H]4C(=O)N[C@]5(C(=O)NS(=O)(=O)C6(C)CC6)C[C@H]5C=CCCCCC[C@H](NC(=O)OC5(C(F)(F)F)CCCC5)C(=O)N4C3)c(C(F)(F)F)nc2c1 (stereo in doubt) [Compound 48, 1-(Trifluoromethyl)cyclopentyl ((2R,6S,13aS,14aR,16aS,Z)-2-((6-methoxy-3-(trifluoromethyl)quinoxalin-2-yl)oxy)-14a-(((1-methylcyclopropyl)sulfonyl)carbamoyl)-5,16-dioxo-1,2,3,5,6,7,8,9,10,11,13a,14,14a,15,16,16a-hexadecahydrocyclopropa[e]pyrrolo[1,2-a][1,4]diazacyclopentadecin-6-yl)carbamate] the “fold better potency against the D168A variant” value ([2]; compared to 42) was 3 fold.

COc1ccc2nc(C)c(O[C@@H]3C[C@H]4C(=O)N[C@]5(C(=O)NS(=O)(=O)C6(C)CC6)C[C@H]5C=CCCCCC[C@H](NC(=O)O[C@@H](C)C(F)(F)F)C(=O)N4C3)nc2c1 (stereo in doubt) [Compound 13, (S)-1,1,1-Trifluoropropan-2-yl ((2R,6S,13aS,14aR,16aS,Z)-2-((7-methoxy-3-methylquinoxalin-2-yl)oxy)-14a-(((1-methylcyclopropyl)sulfonyl)carbamoyl)-5,16-dioxo1,2,3,5,6,7,8,9,10,11,13a,14,14a,15,16,16a-hexadecahydrocyclopropa[e]pyrrolo[1,2-a][1,4]diazacyclopentadecin-6-yl)carbamate] gave an EC50 [4] of less than 10 nM.
